This passage reports Ka results from patent US6740304B2, “Receptor binding conjugates” (priority 1999, dated 2004).

This assay deals with T1, folate binding protein (FBP) (Bos taurus, UniProt P02702).
T1 construct: purchased Sigma
The assay is described as follows: Binding assay on immobilised folate binding protein (Scatchard type plot). As to conditions: Scatchard type plot (FIG. 1), for the conjugate assuming at least one binding-reactive folic acid per HIgG. The text has this:
Immobilised folate binding protein (FBP) was used to investigate the binding characteristics of the folic acid conjugates. FBP (Sigma) with a binding capacity of […] folic acid per milligram protein was immobilised on high protein binding 96 well EIA/RIA assay plates (Costar Corning Inc. N.Y., USA)
FBP was labelled with ^125I by the Iodogen method and the labelled protein was isolated by eluting the reaction mixture on a PD-10 column. Purified ^125I-FBP in concentrations ranging form […] in PBS were added in to the 96 well assay plates and incubated on a rotating rack at 4° C. overnight. […] The immobilised quantities of the various concentrations of quadruplicates of ^125I FBP was determined as the ratio of L3/L1+L2 after measuring the radioactivity of the respective samples by liquid scintillation counting.
Wells were incubated with a solution of FBP in PBS and washed three times with PBS after removal of the incubation mixture. […] The specifically bound fraction of folic acid was determined by a similar method as described for ^125I-FBP, correcting for the faction of ^3H-FA retained in the wells that were preincubated with folic acid. […]
The specifically bound ^3H-FA was plotted against the concentration of ^3H-FA in a Scatchard type plot (FIG. 1). […] The following values were determined from the binding assay: […]

T1 sequence (P02702 20-234): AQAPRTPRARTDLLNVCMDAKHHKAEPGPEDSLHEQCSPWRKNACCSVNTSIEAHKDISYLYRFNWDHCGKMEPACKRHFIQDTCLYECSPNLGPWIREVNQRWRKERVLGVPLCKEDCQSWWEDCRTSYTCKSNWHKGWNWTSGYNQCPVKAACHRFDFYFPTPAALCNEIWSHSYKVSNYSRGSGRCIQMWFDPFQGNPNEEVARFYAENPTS

As to ^3H-Folic acid [^3H-FA], the Ka is reported as 2×10^8.
